In assay [1] the target is T1, Sodium-dependent serotonin transporter (Rattus norvegicus, UniProt P31652). The assay can be described thus: Displacement of [3H]citalopram from rat cortical serotonin transporter (SERT). In general terms: Loss of bound radioactivity is the signal in a displacement assay; it reports binding, not function.
The target of assay [2] is T1, Sodium-dependent serotonin transporter. The assay is described as follows: Compound was evaluated for its ability to displace [3H]citalopram binding to the rat cortical Serotonin transporter.

T1 sequence (P31652 whole entry): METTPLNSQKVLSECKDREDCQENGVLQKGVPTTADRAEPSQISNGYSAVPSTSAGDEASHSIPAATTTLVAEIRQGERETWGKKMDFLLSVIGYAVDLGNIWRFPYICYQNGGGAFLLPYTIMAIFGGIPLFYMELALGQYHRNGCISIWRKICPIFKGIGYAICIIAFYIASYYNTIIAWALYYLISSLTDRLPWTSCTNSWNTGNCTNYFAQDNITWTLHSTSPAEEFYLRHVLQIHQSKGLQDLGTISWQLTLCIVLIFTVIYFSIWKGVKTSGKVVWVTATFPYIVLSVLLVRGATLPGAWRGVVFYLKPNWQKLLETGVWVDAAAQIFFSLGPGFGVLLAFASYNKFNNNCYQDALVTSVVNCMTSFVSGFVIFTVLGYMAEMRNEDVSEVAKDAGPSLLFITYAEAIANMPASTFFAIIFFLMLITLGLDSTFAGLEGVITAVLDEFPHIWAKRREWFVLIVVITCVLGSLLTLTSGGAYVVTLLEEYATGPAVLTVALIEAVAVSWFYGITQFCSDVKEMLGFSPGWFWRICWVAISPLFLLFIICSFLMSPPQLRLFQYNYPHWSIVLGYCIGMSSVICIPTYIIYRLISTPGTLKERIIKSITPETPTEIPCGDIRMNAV

Usually Ki stands for a measure of affinity in units of concentration, obtained from inhibition or displacement. The low end stands for tighter binding, the high end for weaker binding. On to `O=[N+]([O-])c1ccc2nc(N3CCNCC3)cc(N3CCCC3)c2c1`, for which, in assay [1], the inhibition constant (Ki) is 61.1 nM.
Still for that read-out and setting: with `C=CCc1cc(N2CCNCC2)nc2ccc([N+](=O)[O-])cc12` the figure was 1.67 nM; with `O=[N+]([O-])c1ccc2nc(N3CCNCC3)cc(I)c2c1`, 1.73 nM; with `O=[N+]([O-])c1ccc2nc(N3CCNCC3)cc(Br)c2c1`, 0.37 nM.
On the same count and under the same terms, then `O=[N+]([O-])c1ccc2nc(N3CCNCC3)cc(Cc3ccccc3)c2c1`, with 127 nM.
In the case of `O=[N+]([O-])c1ccc2nc(N3CCNCC3)cc(-c3ccco3)c2c1`, in assay [1], affinity was put at a Ki of 5.23 nM.
For the compound `O=[N+]([O-])c1ccc2nc(N3CCNCC3)cc(-c3ccccc3)c2c1`, in assay [1], the Ki was found to be 60 nM.
With `O=CN1CCN(c2cc(Br)c3cc([N+](=O)[O-])ccc3n2)CC1`, affinity in assay [2] was put at a Ki of 1.73 nM.
Take `CN(C)Cc1ccccc1Sc1ccc(I)cc1N`: affinity in assay [1] was put at a Ki of 0.013 nM.
On the same count and under the same terms, with `O=[N+]([O-])c1ccc2nc(N3CCNCC3)cc(-c3cccs3)c2c1` the figure was 67.2 nM.
Still for that read-out and setting: then `O=[N+]([O-])c1ccc2nc(N3CCNCC3)cc(Cl)c2c1`, with 0.03 nM; and `C=Cc1cc(N2CCNCC2)nc2ccc([N+](=O)[O-])cc12`, with 1.82 nM.

These data come from ChEMBL document CHEMBL1135231, “Syntheses and binding affinities of 6-nitroquipazine analogues for serotonin transporter. Part 2: 4-substituted 6-nitroquipazines” (Bioorg Med Chem Lett, 2002).
